# Test results from article PMC10051798, “Thiosemicarbazide Derivatives Targeting Human TopoIIα and IDO-1 as Small-Molecule Drug Candidates for Breast Cancer Treatment” (International Journal of Molecular Sciences, 2023).
# Assays:
# Assay type in all cases: cell-based, human
# MDA-MB-231 cells = assay: Annexin V/propidium iodide flow cytometry (apoptosis), MDA-MB-231; details: MDA-MB-231, 24 h, concentration not given
# Excerpt: (§1) Flow cytometry analyses for apoptosis induction by the compounds 1–3 and etoposide wereperformedusing an FITC Annexin V Apoptosis Detection Kit II (BD Pharmingen, San Diego, CA, USA). The rationale of the assay is based on the externalization of phosphatidylserine on the surface of apoptotic cells. In early and late apoptotic cells, the phosphatidylserine translocates into the outer layer of the membrane, which allows annexin V-FITC to attach. Propidium iodide (PI) is, in turn, a fluorescent dye that penetrates into the late apoptotic and necrotic cells with impaired cell membrane integrity. Therefore, using annexin V and PI, it is possible to distinguish four groups of cells: living cells, early apoptotic cells, late apoptotic cells and necrotic cells. MCF-7 and MDA-MB-231 cells were incubated with 10 and 20 µg/mL of compounds 1–3 and etoposide (reference drug) for 24 h. After incubation, the cells were dyed with FITC-labeled annexin V and PI. The analysis was performed on a BD FACS Canto II flow cytometer using FACSDiva software (version 6.1.3, BD Biosciences Systems, San Diego, CA, USA). The equipment was calibrated with BD Cytometer Setup and Tracking Beads (BDBiosciences, San Diego, CA, USA).
# MCF-7 cells [1] = assay: Cell cycle analysis (PI flow cytometry), MCF-7; details: 24 h
# Description: Cell cycle analyses of MCF-7 and MDA-MB-231 cells treated with compounds 1–3 and etoposide for 24 h were performed using a FACSCanto II flow cytometer (BD Bioscences Systems, San Diego, CA, USA). After incubation, breast cancer cells were trypsinized and fixed with cold ethanol (70%) and stored overnight at −20 °C. After removing ethanol, the cells were washed three times with PBS, treated with 50 μg/mL of DNase-free RNase A Solution (Promega, Madison, WI, USA) and stained with 100 μg/mL of PI. The results of measurements were analyzed using FCS Express 7 software (De Novo Software, Pasadena, CA, USA).
# MCF-7 cells [2] = assay: Annexin V/propidium iodide flow cytometry (apoptosis), MCF-7; details: MCF-7, 24 h, concentration not given
# Excerpt: as §1
Compound,apoptotic cells (MDA-MB-231 cells) [%],"cells in G2/M phase (MCF-7 cells [1]; MCF-7, 20 µg/mL) [%]","cells in S phase (MCF-7 cells [1]; MCF-7, 20 µg/mL) [%]",apoptotic cells (MCF-7 cells [2]) [%],"cells in G2/M phase (MCF-7 cells [1]; MCF-7, 10 µg/mL) [%]"
O=C(Cc1cccc2ccccc12)NNC(=S)Nc1ccc(/N=N/c2ccccc2)cc1 [Compound 2],70,32.2,40.7,,
O=C(NNC(=S)Nc1ccc(/N=N/c2ccccc2)cc1)c1ccccc1[N+](=O)[O-] [Compound 3],,,49.1,~68,35.3
